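Grown in 96-well plates, cells were treated for 48 hours with each compound at five concentrations. Insufficient inhibition: endpoint recorded as highest concentration tested. GI50 is the concentration that inhibits growth by half.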 Activity calls are given as the source filed them. No stated cut-off is given here; in the data, active = GI50 up to about 1.1 µM and inactive = higher.
Columns and labels:
Test in all cases: growth of human tumour cells (NCI), 48 h
TK-10 = system: TK-10
OVCAR-8 = system: OVCAR-8
SNB-75 = system: SNB-75
EKVX = system: EKVX
COLO 205 = system: COLO 205
DU-145 = system: DU-145
MCF7 = system: MCF7
NCI/ADR-RES = system: NCI/ADR-RES
RPMI-8226 = system: RPMI-8226
SW-620 = system: SW-620
UACC-257 = system: UACC-257
MDA-MB-435 = system: MDA-MB-435
NCI-H23 = system: NCI-H23
OVCAR-5 = system: OVCAR-5
SF-539 = system: SF-539
OVCAR-4 = system: OVCAR-4
SK-MEL-28 = system: SK-MEL-28
A498 = system: A498
CCRF-CEM = system: CCRF-CEM

Structure (SMILES) | GI50 (TK-10) | GI50 (OVCAR-8) | GI50 (SNB-75) | GI50 (EKVX) | GI50 (COLO 205) | GI50 (DU-145) | GI50 (MCF7) | GI50 (NCI/ADR-RES) | GI50 (RPMI-8226) | GI50 (SW-620) | GI50 (UACC-257) | GI50 (MDA-MB-435) | GI50 (NCI-H23) | GI50 (OVCAR-5) | GI50 (SF-539) | GI50 (OVCAR-4) | GI50 (SK-MEL-28) | GI50 (A498) | GI50 (CCRF-CEM)
O=C(CCn1ccnc1[N+](=O)[O-])NCCCn1ccnc1[N+](=O)[O-] | > 100 µM (inactive) | > 100 µM (inactive) | > 100 µM (inactive) | > 100 µM (inactive) | > 100 µM (inactive) | > 100 µM (inactive) | > 100 µM (inactive) | > 100 µM (inactive) | > 100 µM (inactive) | > 100 µM (inactive) | > 100 µM (inactive) | > 100 µM (inactive) | > 100 µM (inactive) | > 100 µM (inactive) | > 100 µM (inactive) | > 100 µM (inactive) | > 100 µM (inactive) | > 100 µM (inactive) | > 100 µM (inactive)
C=CCC(CC=O)(C(=O)OCC)C(=O)OCC | > 100 µM (inactive) | > 100 µM (inactive) | > 100 µM (inactive) | > 100 µM (inactive) | > 100 µM (inactive) | > 100 µM (inactive) | > 100 µM (inactive) | > 100 µM (inactive) | > 100 µM (inactive) | > 100 µM (inactive) | > 100 µM (inactive) | > 100 µM (inactive) | > 100 µM (inactive) | > 100 µM (inactive) | > 100 µM (inactive) | > 100 µM (inactive) | > 100 µM (inactive) | > 100 µM (inactive) | > 100 µM (inactive)
Cc1ccc(C(CCO)CCO)nc1 | > 100 µM (inactive) | > 100 µM (inactive) | > 100 µM (inactive) | > 100 µM (inactive) | > 100 µM (inactive) | > 100 µM (inactive) | > 100 µM (inactive) | > 100 µM (inactive) | > 100 µM (inactive) | > 100 µM (inactive) | > 100 µM (inactive) | > 100 µM (inactive) | > 100 µM (inactive) | > 100 µM (inactive) | > 100 µM (inactive) | > 100 µM (inactive) | > 100 µM (inactive) | > 100 µM (inactive) | > 100 µM (inactive)
Cn1c2cc(Cl)ccc2c2ccc3c(c21)C(=O)C=CC3=O | 26.9 µM (inactive) | 28.3 µM (inactive) | > 71 µM (inactive) | > 71.4 µM (inactive) | 13.8 µM (inactive) | > 57 µM (inactive) | 13.8 µM (inactive) | > 52.4 µM (inactive) | 5.57 µM (inactive) | 4.4 µM (inactive) | 26.4 µM (inactive) | 25.4 µM (inactive) | 20 µM (inactive) | 86.5 µM (inactive) | > 55 µM (inactive) | 20.7 µM (inactive) | 25.3 µM (inactive) | 68.7 µM (inactive) | 3.68 µM (inactive)
O=C1/C(=C/c2ccccc2)CCC/C1=C\c1ccc(O)c(CN2CCCCC2)c1 | 15.2 µM (inactive) | 3.78 µM (inactive) | 6.37 µM (inactive) | 6.75 µM (inactive) | 5.89 µM (inactive) | 2.62 µM (inactive) | 4.32 µM (inactive) | 2.69 µM (inactive) | 3.27 µM (inactive) | 2.39 µM (inactive) | 5.53 µM (inactive) | 2.55 µM (inactive) | 3.96 µM (inactive) | 15.3 µM (inactive) | 2.95 µM (inactive) | 5.5 µM (inactive) | 6.92 µM (inactive) | 5.37 µM (inactive) | 3.3 µM (inactive)
CN(C)CCCCN1c2ccccc2Sc2cc(N=[N+]=[N-])ccc21 | 2.02 µM (inactive) | 1.69 µM (inactive) | 1.8 µM (inactive) | 4.15 µM (inactive) | 1.69 µM (inactive) | 2.1 µM (inactive) | 1.85 µM (inactive) | 1.75 µM (inactive) | 2.38 µM (inactive) | 1.87 µM (inactive) | 1.83 µM (inactive) | 1.67 µM (inactive) | 9.66 µM (inactive) | 1.89 µM (inactive) | 1.96 µM (inactive) | 2.4 µM (inactive) | 1.82 µM (inactive) | 10 µM (inactive) | 2.01 µM (inactive)
CCCC(=O)Nc1cc(/C=C/C(=O)N2CC(CCl)c3ccc([N+](=O)[O-])cc32)n(C)c1 (centres undefined) | 20 µM (inactive) | 30.3 µM (inactive) | > 100 µM (inactive) | > 100 µM (inactive) | > 100 µM (inactive) | > 100 µM (inactive) | 68.7 µM (inactive) | 30.7 µM (inactive) | 14.5 µM (inactive) | > 100 µM (inactive) | > 100 µM (inactive) | > 100 µM (inactive) | > 100 µM (inactive) | > 100 µM (inactive) | 43.4 µM (inactive) | > 100 µM (inactive) | > 100 µM (inactive) | < 0.01 µM (active) | 0.568 µM (active)
CCOC(=O)C1=CC(C)(C(=O)OCC)Nc2c(nc(N)[nH]c2=O)N1 (centres undefined) | > 10 µM (inactive) | > 10 µM (inactive) | > 10 µM (inactive) | > 10 µM (inactive) | > 10 µM (inactive) | > 10 µM (inactive) | > 10 µM (inactive) | > 10 µM (inactive) | > 10 µM (inactive) | > 10 µM (inactive) | > 10 µM (inactive) | > 10 µM (inactive) | > 10 µM (inactive) | > 10 µM (inactive) | > 10 µM (inactive) | > 10 µM (inactive) | > 10 µM (inactive) | > 10 µM (inactive) | > 10 µM (inactive)
CO/C(N)=C(C#N)/N=C/c1ccccc1 | > 100 µM (inactive) | > 100 µM (inactive) | > 100 µM (inactive) | 66.7 µM (inactive) | 71.9 µM (inactive) | > 100 µM (inactive) | 31.8 µM (inactive) | > 100 µM (inactive) | > 100 µM (inactive) | > 100 µM (inactive) | > 100 µM (inactive) | > 100 µM (inactive) | > 100 µM (inactive) | > 100 µM (inactive) | > 100 µM (inactive) | 71 µM (inactive) | > 100 µM (inactive) | > 100 µM (inactive) | 50 µM (inactive)
Nc1nc(Cl)cc(NCC2(CO)CC(Cc3ccccc3)C2)n1 (centres undefined) | 25.6 µM (inactive) | 42.2 µM (inactive) | 28.6 µM (inactive) | 3.35 µM (inactive) | 29.8 µM (inactive) | > 53.5 µM (inactive) | 11.2 µM (inactive) | 9.73 µM (inactive) | 15 µM (inactive) | > 65.6 µM (inactive) | 31.5 µM (inactive) | 19.4 µM (inactive) | 34.4 µM (inactive) | > 58.7 µM (inactive) | 59.3 µM (inactive) | 24.2 µM (inactive) | 60.4 µM (inactive) | 10.1 µM (inactive) | 29.5 µM (inactive)
O=[N+]([O-])c1ccc(Sc2c3ccccc3nc3ccccc23)nc1 | 2.96 µM (inactive) | 22 µM (inactive) | 15.6 µM (inactive) | 17 µM (inactive) | 2.37 µM (inactive) | 6.93 µM (inactive) | 3.79 µM (inactive) | 19 µM (inactive) | 2.21 µM (inactive) | 2.08 µM (inactive) | 7.06 µM (inactive) | 8.55 µM (inactive) | 6.84 µM (inactive) | 18.6 µM (inactive) | 16.7 µM (inactive) | 4.69 µM (inactive) | 4.75 µM (inactive) | 18.5 µM (inactive) | 2.51 µM (inactive)
